From US10167412B2, “Phenol polymer with 5,5′-biaryl bonds, method for preparing same, and uses thereof” (INSTITUT NATIONAL DE LA RECHERCHE AGRONOMIQUE, priority 2013, dated 2019)

Target: T1, estrogen receptors (Homo sapiens, UniProt P03372)
T1 construct: expressed in transfected cells; host or cells: HELN-ERα cell line (HeLa-derived, per own knowledge of Escande et al. 2006)
T1 sequence (P03372 1-595): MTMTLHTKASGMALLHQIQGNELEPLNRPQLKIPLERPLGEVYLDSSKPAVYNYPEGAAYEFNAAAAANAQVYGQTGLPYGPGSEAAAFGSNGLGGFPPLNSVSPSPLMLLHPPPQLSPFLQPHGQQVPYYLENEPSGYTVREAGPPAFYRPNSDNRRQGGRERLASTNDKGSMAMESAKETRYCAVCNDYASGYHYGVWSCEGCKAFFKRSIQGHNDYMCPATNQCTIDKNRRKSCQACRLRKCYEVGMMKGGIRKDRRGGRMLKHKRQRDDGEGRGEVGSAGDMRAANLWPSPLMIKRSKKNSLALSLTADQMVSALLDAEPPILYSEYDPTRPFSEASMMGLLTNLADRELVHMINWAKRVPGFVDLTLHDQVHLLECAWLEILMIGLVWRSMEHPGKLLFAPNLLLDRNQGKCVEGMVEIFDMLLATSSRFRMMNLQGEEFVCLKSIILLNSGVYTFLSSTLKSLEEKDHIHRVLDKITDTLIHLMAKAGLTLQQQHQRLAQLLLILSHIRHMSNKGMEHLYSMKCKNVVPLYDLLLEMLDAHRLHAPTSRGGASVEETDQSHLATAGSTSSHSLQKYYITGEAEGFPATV
Assay: Test for toxicity with respect to estrogen receptors on the HELN-ERα cell line
Type: cell-based
Conditions: for interaction with estrogen receptors (% of antagonist activity with respect to estradiol (E2) at 10 nM): FIG. 12, result in words
Description: A test for toxicity with respect to estrogen receptors was carried out for the IDF, PDF, GDF and BDF macrobisphenols, according to the method set out in the publication by Molina-Molina et al., 2008 (Toxicol. Appl. Pharmacol., doi: 10.1016/j.taap.2008.07.017), on the HELN-ERα cell line, described in the publication by Escande et al., 2006 (Biochemical Pharmacology, 71, 1459-1469).
The results obtained, expressed as % of antagonist activity with respect to the activity of estradiol (E2) at 10 nM, as a function of the monomer concentration, are shown in FIG. 12.

Row | Compound | interaction with estrogen receptors (% of antagonist activity with respect to estradiol (E2) at 10 nM) | percentage activity with respect to the activity of estradiol (E2) at 10 nM (at 10^−5 M) | percentage activity with respect to the activity of estradiol (E2) at 10 nM (at 10^−6 M)
1 | COc1cc(CCC(=O)OCCCOC(=O)CCc2ccc(O)c(OC)c2)ccc1O [PDF, propane-1,3-di(dihydroferulate)] | interact only very little | – | –
2 | COc1cc(CCC(=O)OCCCCOC(=O)CCc2ccc(O)c(OC)c2)ccc1O [BDF, butane-1,4-di(dihydroferulate)] | interact only very little | – | –
3 | COc1cc(CCC(=O)O[C@H]2CO[C@H]3[C@@H]2OC[C@H]3OC(=O)CCc2ccc(O)c(OC)c2)ccc1O [IDF, isosorbide-2,5-(dihydroferulate)] | interact only very little | – | –
4 | CC(C)(c1ccc(O)cc1)c1ccc(O)cc1 [bisphenol A, reference compound] | – | 60% | 45%
5 | COc1cc(CCC(=O)OCC(O)COC(=O)CCc2ccc(O)c(OC)c2)ccc1O [GDF, glycerol-3-di(dihydroferulate)] | interact only very little | – | –
